Measurements from ChEMBL document CHEMBL1157918, “The development and SAR of pyrrolidine carboxamide 11beta-HSD1 inhibitors” (Bioorg Med Chem Lett, 2010).

Tests used:
[1] = in vitro; conditions: human, liver microsomes
Description: Intrinsic clearance in human liver microsomes

[2] = species on record: Mus musculus; test: animal or person; conditions: C57BL, Plasma, po, read-out: INH
Description: Inhibition of 11-beta-HSD1 in C57BL mouse assessed as reduction of plasma cortisol level at 30 mg/kg, po administered 30 mins before cortisone challenge measured after 60 mins by ELISA relative to control

[3] = species on record: Mus musculus; test: animal or person; conditions: C57BL, Plasma, po, read-out: INH; remark: listed apart in the source
Description: Inhibition of 11-beta-HSD1 in C57BL mouse assessed as reduction of plasma cortisol level at 100 mg/kg, po administered 30 mins before cortisone challenge measured after 60 mins by ELISA relative to control

[4] = species on record: Mus musculus; test: animal or person; conditions: C57BL, Plasma, po, read-out: INH; remark: listed apart in the source
Description: Inhibition of 11-beta-HSD1 in C57BL mouse assessed as reduction of plasma cortisol level at 1 mg/kg, po administered 30 mins before cortisone challenge measured after 60 mins by ELISA relative to control

[5] = species on record: Mus musculus; test: animal or person; conditions: C57BL, Plasma, po, read-out: INH; remark: listed apart in the source
Description: Inhibition of 11-beta-HSD1 in C57BL mouse assessed as reduction of plasma cortisol level at 10 mg/kg, po administered 30 mins before cortisone challenge measured after 60 mins by ELISA relative to control

[6] = species on record: Mus musculus; test: animal or person; conditions: C57BL, Plasma, po, read-out: INH; remark: listed apart in the source
Description: Inhibition of 11-beta-HSD1 in C57BL mouse assessed as reduction of plasma cortisol level at 3 mg/kg, po administered 30 mins before cortisone challenge measured after 60 mins by ELISA relative to control

| CLint scaled [1] [mL/min/kg] | SMILES | other results |
| --- | --- | --- |
| 79.3 | CC(C)CN1CCC[C@@H]1C(=O)NC1C2CC3CC(C2)CC1C3 (some centres not stated) |  |
| 73.2 | N#Cc1ccc(CN2CCC[C@@H]2C(=O)NC2C3CC4CC(C3)CC2C4)cc1 (some centres not stated) |  |
| 85.8 | O=C(NC1C2CC3CC(C2)CC1C3)[C@H]1CCCN1CC1CCC1 (some centres not stated) |  |
| 75.3 | O=C(NC1C2CC3CC(C2)CC1C3)[C@H]1CCCN1CC1CCCC1 (some centres not stated) |  |
| 43.9 | CCN1CCC[C@@H]1C(=O)NC1C2CC3CC(C2)CC1C3 (some centres not stated) | inhibition in vivo at 30 mg/kg [2]: 20%; inhibition in vivo at 100 mg/kg [3]: 18%; inhibition in vivo at 1 mg/kg [4]: 52%; inhibition in vivo at 10 mg/kg [5]: 23%; inhibition in vivo at 3 mg/kg [6]: 46% |
| 20.3 | O=C(NC1C2CC3CC(C2)CC1C3)[C@H]1CCCN1CC1CCOCC1 (some centres not stated) |  |
| 93.3 | CCCN1CCC[C@@H]1C(=O)NC1C2CC3CC(C2)CC1C3 (some centres not stated) |  |
| 79.2 | O=C(NC1C2CC3CC(C2)CC1C3)[C@H]1CCCN1c1ccccn1 (some centres not stated) |  |
| 86.2 | O=C(NC1C2CC3CC(C2)CC1C3)[C@H]1CCCN1CC1(O)CCCC1 (some centres not stated) |  |
| 62.8 | O=C(NC1C2CC3CC(C2)CC1C3)[C@H]1CCCN1CC1CCCCC1 (some centres not stated) |  |
| 64.6 | O=C(NC1C2CC3CC(C2)CC1C3)[C@H]1CCCN1CC1(O)CCCCC1 (some centres not stated) |  |
| 22.2 | CN1CCC[C@@H]1C(=O)NC1C2CC3CC(C2)CC1C3 (some centres not stated) |  |
